Source: US20080255498A1, “Sensitizer Solutions, Systems, and Methods of Use” (priority 2005, published 2008)

Test: Spectral absorption of light of sensitizer solutions (FIG. 2A, 2B)
Assay type: physicochemical
Source text: FIG. 2A is a graphic representation of spectral absorption of light for two embodiments of the sensitizer solution plotting absorbance versus wavelength in nm.
FIG. 2B is a graphic representation of the spectral absorption of light for four embodiments of the sensitizer solution plotting absorbance versus wavelength in nm.
FIGS. 2A and 2B illustrate that the sensitizer solution 12 has an electromagnetic energy absorption level dependent on the frequency (i.e., wavelength) of the electromagnetic energy. […] See U.S. Pat. No. 6,561,808 by Neuberger.

Compound | absorption spectrum primary peak | absorption spectrum secondary peak | absorption spectrum tertiary peak
C=Cc1c(C)c2cc3nc(c(CC(=O)O)c4[nH]c(cc5nc(cc1[nH]2)C(C)=C5CC)c(C)c4C(=O)O)[C@@H](CCC(=O)O)[C@@H]3C [chlorin e6] | about 665 nm | about 575 nm | about 515 nm
bacteriochlorin a | about 765 nm | about 605 nm | –
silicon naphthalocyanine | about 773 nm | about 690 nm | about 735 nm
